Values after ≈ are worked out from the molar mass of the structure shown. Active and inactive are the calls of the source. The calls are words filed in the database; no cut-off is given here.

The values below come from ChEMBL document CHEMBL1157247, “Bioactive natural and semisynthetic latrunculins” (2006).

Assay [1] is filed under the species Mus musculus. Put plainly: Antiproliferative activity against mouse B16B15b cells at 1 uM after 18 hrs by alamar blue assay relative to control. The assay is classed as functional, cell-based. On the technique in general: Alamar Blue is a resazurin reagent that responds to reducing activity.
The species named for assay [2] is Mus musculus. The assay is described as follows: Inhibition of mouse B16B15b cell migration assessed as wound closure rate at 1 uM after 14 hrs by wound healing assay relative to control. Format: functional.
A further assay has as its system Saccharomyces cerevisiae. Put plainly: Antifungal activity against Saccharomyces cerevisiae by modified microtiter plate assay. The assay is classed as functional.
In the next assay the test system is Candida albicans. Put plainly: Antifungal activity against Candida albicans ATCC 10231 by modified microtiter plate assay. Format: functional.
For assay [3], the species on record is Gallus gallus. Put plainly: Antiangiogenic activity in fertilized white leghorn chicken eggs at 57 uM/disk by CAM assay. Format: functional. As to conditions: Egg.
The test system of a further assay is Bacillus cereus. Put plainly: Antibacterial activity against Bacillus cereus by modified microtiter plate assay. The assay is classed as functional.
The test system of the next assay is Staphylococcus aureus. The assay is described as follows: Antibacterial activity against Staphylococcus aureus ATCC 6535 by modified microtiter plate assay. Format: functional.
Assay [4] is filed under the species Mus musculus. Put plainly: Inhibition of mouse B16B15b cell migration at 1 uM by Boyden's camber assay. The assay is classed as functional.
The species entered for assay [5] is Gallus gallus. The assay is described as follows: Antiangiogenic activity in fertilized white leghorn chicken eggs at 12 uM/disk by CAM assay. The assay is classed as functional. As to conditions: Egg.

For `C/C1=C/C(=O)O[C@@H]2C[C@@H](CC[C@H](C)/C=C\CC1)O[C@@](O)([C@@H]1CSC(=O)N1)C2` [LATRUNCULIN B], the outcome in the assay filed under Mus musculus [1] and in the assay listed under Mus musculus [2] was Active. The MIC in the assay on Saccharomyces cerevisiae and in the assay with Candida albicans was 2.5 µM (≈ 0.989 µg/mL) in each case.

Consider `COc1cc(/C=C/C(=O)CC(=O)/C=C/c2ccc(O)c(OC)c2)ccc1O`, for which, in the assay listed under Gallus gallus [3], the result was Active.

On to `Clc1ccccc1C(c1ccccc1)(c1ccccc1)n1ccnc1` [CLOTRIMAZOLE], for which the MIC in the assay on Saccharomyces cerevisiae and against Candida albicans was 21.7 µM (≈ 7.48 µg/mL) in each case.

Consider `CCCCCCCCO[C@]1([C@@H]2CSC(=O)N2)C[C@H]2C[C@@H](CC[C@H](C)/C=C\CC/C(C)=C\C(=O)O2)O1` [15-O-OCTYLLATRUNCULIN B], for which the MIC (usually the least concentration at which growth counts as inhibited) against Bacillus cereus was 14.7 µM (≈ 7.46 µg/mL); with Saccharomyces cerevisiae it was 2.5 µM (≈ 1.27 µg/mL); with Staphylococcus aureus it was 14.7 µM (≈ 7.46 µg/mL); in the assay with Candida albicans, 2.5 µM (≈ 1.27 µg/mL). Besides, in the assay listed under Mus musculus [1], the outcome was Active.

For the molecule `CCCCO[C@]1([C@@H]2CSC(=O)N2)C[C@H]2C[C@@H](CC[C@H](C)/C=C\CC/C(C)=C\C(=O)O2)O1` [15-O-BUTYLLATRUNCULIN B], in the assay listed under Mus musculus [1], the outcome was Active. In addition, the MIC in the assay on Saccharomyces cerevisiae and against Candida albicans was 2.5 µM (≈ 1.13 µg/mL) throughout.

For the molecule `C/C1=C/C(=O)O[C@@H]2CC(CC[C@H](C)/C=C\C=C\CC1)O[C@@](O)([C@H]1CSC(=O)N1)C2`, the MIC against Saccharomyces cerevisiae and in the assay on Candida albicans was 2.5 µM (≈ 1.05 µg/mL) each time.

Consider `C/C1=C/C(=O)O[C@@H]2C[C@@H](CC[C@H](C)/C=C\CC1)O[C@@](O)([C@@H]1CSC(=O)N1CO)C2` [N-HYDROXYMETHYLLATRUNCULIN B], for which the outcome in the assay filed under Mus musculus [4] was Active. Further, the MIC in the assay on Saccharomyces cerevisiae and in the assay on Candida albicans was 2.5 µM (≈ 1.06 µg/mL) throughout.

Regarding `CC(=O)N1C(=O)SC[C@H]1C(=O)/C=C/C[C@H]1CC[C@H](C)/C=C\CC/C(C)=C\C(=O)O1`, the MIC was 17.8 µM (≈ 7.47 µg/mL) against Bacillus cereus, 2.5 µM (≈ 1.05 µg/mL) against Saccharomyces cerevisiae, 17.8 µM (≈ 7.47 µg/mL) with Staphylococcus aureus and 2.5 µM (≈ 1.05 µg/mL) in the assay with Candida albicans. The outcome in the assay listed under Mus musculus [1] was Active.

On to `CO[C@]1([C@@H]2CSC(=O)N2)C[C@H]2C[C@@H](CC[C@H](C)/C=C\CC/C(C)=C\C(=O)O2)O1` [15-METHOXYLATRUNCULIN B], for which the outcome in the assay listed under Mus musculus [4] and in the assay filed under Gallus gallus [5] was Active. Moreover, the MIC against Saccharomyces cerevisiae and in the assay with Candida albicans was 2.5 µM (≈ 1.02 µg/mL) throughout.

Regarding `CC(=O)N1C(=O)SC[C@H]1[C@@]1(O)C[C@H]2C[C@@H](CC[C@H](C)/C=C\CC/C(C)=C\C(=O)O2)O1` [N-ACETYLLATRUNCULIN B], the result in the assay listed under Mus musculus [2] was Active. For the same molecule, the MIC against Saccharomyces cerevisiae and in the assay with Candida albicans was 2.5 µM (≈ 1.09 µg/mL) in each case.

`CC1(C)S[C@@H]2[C@H](NC(=O)Cc3ccccc3)C(=O)N2[C@H]1C(=O)O` [PENICILLIN G]: the minimum inhibitory concentration (MIC) against Bacillus cereus and against Staphylococcus aureus was 22.4 µM (≈ 7.49 µg/mL) throughout.
